Patent EP0263506B1, “Anticonvulsant composition containing amino acid derivative and use of said amino acid derivative” (priority 1986, dated 1988)
Where two headings read alike, the source gives them in different places. Marks after values point to notes of the source that are not given here.

Legend:
[1] = Horizontal screen assay (HS), neurologic toxicity; assay type: in vivo; settings: mouse; mice; Median Toxic Dose; evaluated using a horizontal screen assay (HS) as opposed to the Rotorod Test; read-out: Tox TD50
Experimental: (§1) in the eye prior to application of the electrodes so as to prevent the death of the animal. Protection in this test was defined as the abolition of the hind limb tonic extension component of the seizure. The Subcutaneous Pentylenetetrazole (Metrazol^R) Seizure Threshold Test (sc Met) entailed the administration of 85 mg/kg of pentylenetetrazole as a 0.5% solution subcutaneously in the posterior midline. […] Protection was defined as the failure to observe even a threshold seizure (a single episode of clonic spasms of at least 5 sec duration). The effects of the compounds on forced and spontaneous motor activity were evaluated in mice using the Rotorod Test (Tox) or, in some cases, as indicated herein, a horizontal screen assay (HS). The animal was placed on a one-inch diameter knurled plastic rod rotating at 6 rpm after the administration of the drug. Normal mice can remain on a rod rotating at this speed indefinitely. Neurologic toxicity was defined as the failure of the animal to remain on the rod for one minute. The MES and so Met Tests were conducted on single animals while four mice were utilized for the Tox Test. The dose effect behavior of the compounds was evaluated using the above-described procedures by the administration of varying dose levels, treating normally eight mice at each dose. Table I includes an evaluation of the Median Effective Dose (ED50) and the Median Toxic Dose (TD50) of representative compounds. Mice were tested with varying doses of the anticonvulsant to define the limits of complete protection (or toxicity) and no protection (or no toxicity), as well as three points in between these limits. The Median Effective Dose (ED50) was defined as the dose which produced the Pharmacology. […] N-Acetyl-D,L-alanine-N'-benzylamide was tested at […] as well. […] Maximal electroshock seizures (MES) were elicited with a 60 cycle alternating current of 50 mA intensity (5-7 times that necessary to elicit minimal electroschock seizures) delivered for 0.2 sec via corneal electrodes. A drop of 0.9% saline was instilled desired endpoint in 50% of the animals. The Median Toxicity Dose (TD50) was the dose which elicited evidence of minimal neurological toxicity in 50% of the animals.
The TD50 of D,L-α-acetamido-N-benzyl-3-thiopheneacetamide, D,L-α-acetamido-N-benzyl-2-thiopheneacetamide, D,L-α-acetamido-N-benzyl-2-furanacetamide, D,L-α-acetamido-N-benzyl-2-pyrroleacetamide, D,L-2-acetamido-N-benzyl-2-ethoxyacetamide and D,L-2-acetamido-N-benzyl-2-methoxyacetamide were evaluated using a horizontal screen assay (HS) as opposed to the Rotorod Test.

[2] = system: Maximal electroshock seizures (MES); test: Maximal electroshock seizure test (MES); assay type: in vivo, mice; settings: Mus musculus, read-out: MES ED50
Experimental: as §1

pentylenetetrazole = test: Subcutaneous Pentylenetetrazole (Metrazol) Seizure Threshold Test (sc Met); assay type: in vivo, mice; settings: for ED50: Mus musculus, sc, 0.5 h, read-out: sc Met ED50
Experimental: as §1

[3] = system: male Carworth Farms #1 mice; test: Rotorod Test (Tox), neurologic toxicity; assay type: in vivo; settings: Median Toxic Dose, comparison drugs
Experimental: The effects of the compounds on forced and spontaneous motor activity were evaluated in mice using the Rotorod Test (Tox) or, in some cases, as indicated herein, a horizontal screen assay (HS). The animal was placed on a one-inch diameter knurled plastic rod rotating at 6 rpm after the administration of the drug. Normal mice can remain on a rod rotating at this speed indefinitely. Neurologic toxicity was defined as the failure of the animal to remain on the rod for one minute. The MES and so Met Tests were conducted on single animals while four mice were utilized for the Tox Test. The dose effect behavior of the compounds was evaluated using the above-described procedures by the administration of varying dose levels, treating normally eight mice at each dose. […] Mice were tested with varying doses of the anticonvulsant to define the limits of complete protection (or toxicity) and no protection (or no toxicity), as well as three points in between these limits. […] The Median Toxicity Dose (TD50) was the dose which elicited evidence of minimal neurological toxicity in 50% of the animals.

[4] = mice, 50 mA, 60 cycle, 0.2 sec via corneal electrodes, abolition of hind limb tonic extension
[5] = mice, 85 mg/kg pentylenetetrazole subcutaneously, observed for 30 minutes

For `CC(=O)NC(C(=O)NCc1ccccc1)c1cccs1` (racemic) [D,L-α-Acetamido-N-benzyl-2-thiopheneacetamide], which TD50 [1] is on record?
The TD50 was 30 to 100 mg/kg.

And the ED50 [2]?
The ED50 was 44.8 mg/kg.

For `CC(=O)NC(C(=O)NCc1ccccc1)c1ccco1` (racemic) [D,L-α-Acetamido-N-benzyl-2-furanacetamide], which TD50 [1] is on record?
Its TD50 is 40 mg/kg.

What about the ED50 [2] of the same compound?
Its ED50 is 10.3 mg/kg.

With `CCC1(c2ccccc2)C(=O)NC(=O)NC1=O` [phenobarbital, reference compound] as the compound, how does the ED50 [2] read?
Its ED50 is 22 mg/kg.

And the ED50 (pentylenetetrazole)?
The ED50 was 13 mg/kg.

With `CCOC(NC(C)=O)C(=O)NCc1ccccc1` (racemic) [D,L-2-Acetamido-N-benzyl-2-ethoxyacetamide] as the compound, how does the TD50 [1] read?
The TD50 was > 112 mg/kg.

And the ED50 [2]?
The ED50 was 62 mg/kg.

What does the source list for `COC(NC(C)=O)C(=O)NCc1ccccc1` (racemic) [D,L-2-Acetamido-N-benzyl-2-methoxyacetamide]?
TD50 [1]: < 300 mg/kg; ED50 [2]: 98.3 mg/kg

Which ED50 [2, 4] does the source give for `O=C1NC(=O)C(c2ccccc2)(c2ccccc2)N1` [phenytoin, reference compound] here?
The ED50 was 10 mg/kg.

What about the “sc Met ED50” value (pentylenetetrazole; [5]) of the same compound?
The value was “not effective”.

With `CCC1(c2ccccc2)NC(=O)N(C)C1=O` (stereo not shown) [mephenytoin] as the compound, how does the “Tox TD50” value [3] read?
The value was 154 mg/kg.

What about the ED50 [2, 4] of the same compound?
The ED50 was 61 mg/kg.

And the ED50 (pentylenetetrazole; [5])?
Its ED50 is 31 mg/kg.

Which TD50 [1] does the source give for `CC(=O)NC(C(=O)NCc1ccccc1)c1ccc[nH]1` (racemic) [D,L-α-Acetamido-N-benzyl-2-pyrroleacetamide] here?
Its TD50 is < 100 mg/kg.

What about the ED50 [2] of the same compound?
The ED50 was 16.1 mg/kg.

For `NC(=O)NC(=O)Cc1ccccc1` [phenacemide], which “Tox TD50” value [3] is on record?
Its value is 421 (337-549)* mg/kg.

And the ED50 [2, 4]?
Its ED50 is 87 mg/kg.

And the ED50 (pentylenetetrazole; [5])?
Its ED50 is 116 mg/kg.

Which TD50 [1] does the source give for `CC(=O)NC(C(=O)NCc1ccccc1)c1ccsc1` (racemic) [D,L-α-Acetamido-N-benzyl-3-thiopheneacetamide] here?
Its TD50 is > 100 mg/kg.

What about the ED50 [2] of the same compound?
The ED50 was 87.8 mg/kg.
